Broadly, the Kd is the constant that tells how readily two partners part at equilibrium.

Experiment [1] has as its system MLKL translocation in transfected THP-1 cells. Nature of the experiment: Flag-MLKL translocation to cell membrane, immunofluorescent staining, confocal microscopy. The conditions noted are these: transfected THP-1 cells stimulated with compound and TBZ, FIG. 3. It is filed as cell-based, human. How it is done: A human monocyte cell line THP-1 and a human colon cancer cell line HT-29 were maintained in a 10% FBS-Roswell Park Memorial Institute (RPMI) 1640 medium supplemented with 2 mM L-glutamine, 100 U/ml penicillin, and 100 μg/ml streptomycin at 37° C. under a 5% CO2 condition. The THP-1 cells were differentiated into macrophages in an RPMI 1640 medium containing 500 nM Phorbol 12-myristate 13-acetate (PMA) for 3 hours. Human mixed lineage kinase domain-like protein (MLKL)-flag plasmid (Sino Biological, HG12810-CF) transfection was performed using the electroporation system (Invitrogen) of MicroPorator-mini (Digital Bio).
Cells were seeded on cell culture-treated glass chamber slides. The cells were pretreated with Z-VAD, BV6, and the indicated compound for 1 hour, and then treated with TNF-α and BV6 overnight. Subsequently, the cells were washed with phosphate-buffered saline (PBS) and fixed in 4% paraformaldehyde for 10 minutes. Before incubation for 10 minutes in 0.25% Triton X-100 in PBS, the cells were washed three more times with PBS. The cells were blocked with 5% bovine serum albumin (BSA) in PBS for 30 minutes and stained using an anti-Flag (Sigma, F7425-2MG) antibody. The nuclei were stained with DAPI (Invitrogen, 00-4959-52). Images were captured using a confocal microscope (Olympus, FV1000). […]

Another experiment has as its system MLKL oligomerization. Nature of the experiment: MLKL oligomerization (tetramer and octamer bands) by non-reducing or reducing SDS-PAGE. To be noted: cytoplasmic and membrane fractions, necroptosis induced with TBZ, FIG. 2 / FIG. 6A. It is filed as cell-based, human. As for the experimental part: Cells were pretreated with Z-VAD (invivoGen, tlrl-vad) and a compound for 1 hour, and necroptosis was induced with TNF-α (ATGen, TNF0501) and BV6 (Biovision, B1332-5) for the indicated time. The prepared cells were appropriately treated according to analysis (Z-VAD: carbobenzoxy-valyl-alanyl-aspartyl, TNF-α: tumor necrosis factor-α, BV6: 4,4′-(1,6-hexanediyl)bis[N-methyl-L-alanyl-(2S)-2-cyclohexylglycyl-L-prolyl-β-phenyl-L-phenylalaninamide)
Cells were treated with a drug candidate and then collected using centrifugation at 4° C. and 1,500×g for 5 minutes. A supernatant was centrifuged again at 4° C. and 1,500×g for 5 minutes to remove remaining debris, concentrated at 4° C. and 14,000×g for 30 minutes using Amicon ultra-0.5 centrifugal filter unit 10K (Millipore, UFC501096), and stored. […] The extracted protein concentration was measured using a bicinchoninic acid (BCA) protein assay kit (Thermo Fisher Scientific, 23225). […]
To test whether the tetramer and octamer formation of p-MLKL for pore formation in the cell membrane is inhibited by apomorphine (APO), cells that had been treated with each molecule for the indicated time were separated into cytoplasmic and membrane fractions and analyzed through non-reducing or reducing sodium dodecyl sulfate-polyacrylamide gel electrophoresis (SDS-PAGE), and then investigated with specific antibodies (Experimental Method 1-6). […]

Another experiment addresses T1, MLKL protein (Homo sapiens, UniProt Q8NB16).
T1 construct: purchased Abcam ab241453
T1 sequence (Q8NB16 1-471): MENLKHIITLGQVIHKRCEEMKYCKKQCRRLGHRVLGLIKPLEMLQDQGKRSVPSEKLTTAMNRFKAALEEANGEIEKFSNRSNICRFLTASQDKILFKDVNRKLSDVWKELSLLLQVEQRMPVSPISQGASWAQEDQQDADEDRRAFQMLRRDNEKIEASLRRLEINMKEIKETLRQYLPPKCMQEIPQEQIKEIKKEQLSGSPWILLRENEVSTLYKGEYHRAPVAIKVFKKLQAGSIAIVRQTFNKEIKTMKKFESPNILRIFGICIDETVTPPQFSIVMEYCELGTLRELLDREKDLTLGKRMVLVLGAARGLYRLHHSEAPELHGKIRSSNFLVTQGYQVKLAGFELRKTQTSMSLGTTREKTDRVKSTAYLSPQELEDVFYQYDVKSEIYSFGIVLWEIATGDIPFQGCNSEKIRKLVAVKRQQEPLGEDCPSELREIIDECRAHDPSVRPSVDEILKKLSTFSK
As to the kind of experiment: Surface plasmon resonance (SPR) analysis, binding to MLKL protein. The conditions noted are these: MLKL immobilized on CM5 chip, Biacore T200, 25° C., 10 mM HEPES pH 7.4. How it is done:
(§1) The interaction between MLKL and apomorphine (=APO) was detected through surface plasmon resonance (SPR) analysis using Biacore T200 (GE Healthcare). For pH scouting, a buffer consisting of 10 mM sodium acetate (pH 4.0 to 6.0) was used. MLKL protein (Abcam, ab241453), and MLKL N-term (amino acids 1-154) protein that had been purified in a laboratory were immobilized on the surface of a sensor chip CM5 (GE Healthcare) under scouted buffer conditions. To deduce an Rligand value, a coupling process was performed based on the molecular weights of MLKL, MLKL N-term domain (MW ligand), and APO (MW analyte). Oxidized (24 hr, RT incubation) and reduced (+DTT(DL-dithiothreitol)) forms of APO were injected into a running buffer (flow rate: 10 μl/min) consisting of 10 mM HEPES (pH 7.4) at 25° C. A sensorgram was recorded and analyzed in real time using control software provided by the Biacore T200 system itself. Six or more concentrations of APO were used in combination, and each KD value was derived. All run data was calculated using BIAevaluation Software (GE Healthcare).
(§2) SPR analysis was used to analyze the interaction pattern between APO and the MLKL protein (Experimental Method 1-10). […] Here, the analysis was performed by binding MLKL and the MLKL N-term domain protein immobilized on a CM5 chip with APO having six concentrations.
On the technique in general: In SPR one partner is held on a chip, and binding of the other changes the refractive index at the surface.

Experiment [2] concerns the target T2, MLKL N-term domain (amino acids 1-154) (Homo sapiens, UniProt Q8NB16).
T2 construct: MLKL N-term (amino acids 1-154) protein that had been purified in a laboratory; made in house
T2 sequence (Q8NB16 1-154): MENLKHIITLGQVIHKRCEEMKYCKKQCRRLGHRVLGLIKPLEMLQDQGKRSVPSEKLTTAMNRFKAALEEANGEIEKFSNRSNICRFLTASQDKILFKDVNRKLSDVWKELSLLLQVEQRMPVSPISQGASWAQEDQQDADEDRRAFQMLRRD
As to the kind of experiment: Surface plasmon resonance (SPR) analysis, binding to MLKL N-term domain. To be noted: MLKL N-term domain immobilized on CM5 chip, Biacore T200, 25° C., 10 mM HEPES pH 7.4. How it is done: as §1, §2

Regarding `CN1C(=O)C(Cc2c[nH]c3ccccc23)NC1=S` (stereo not shown) [NEC-1, necrostatin-1], the “distribution of Flag-MLKL signals” value in experiment [1] is “mostly distributed in the cytoplasm”.

`CN1CCc2cccc3c2[C@H]1Cc1ccc(O)c(O)c1-3` [reduced APO]: in the experiment on MLKL oligomerization, the “intensities of the tetramer and octamer bands of MLKL” value was “no change”. Moreover, the results for the Kd (at MLKL protein; in experiment [2]) were 0.244 µM and 1140 µM, respectively.
